Laboratory results as given in EP0465096A1, “Plasma cholesterol level lowering composition” (MERCK & CO. INC., priority 1990, dated 1992).
Marks after values point to notes of the source that are not given here.

Test system: dogs
Assay: Plasma cholesterol lowering in dogs, oral bolus (rapid release) vs 24 h gastric infusion (Example 1)
Type: in vivo
Details: ammonium salt, 10 mg/kg/day for 28 days, vs pre-dosing level
Protocol: 7-[1,2,6,7,8,8a(R)-hexahydro-2(S),6(R)-dimethyl-8(S)-(2,2-dimethylbutyryloxy)-naphthalenyl-1(S)]-3(R),5(R)-dihydroxyheptanoic acid, an HMG-CoA reductase inhibitor which is the ring opened dihydroxy acid of simvastatin, was administered to dogs as the ammonium salt as either an oral bolus dose (rapid release) or as a continuous gastric infusion over 24 hours (simulated controlled release). In both cases, each dog received a dose of 10 mg/kg/day for 28 days of the above named HMG-CoA reductase inhibitor. Plasma cholesterol was determined throughout the entire study and drug-treatment levels compared to control cholesterol levels (pre-dosing) for each dog. Circulating plasma levels of the above named HMG-CoA reductase inhibitor were determined on Day 16 of each drug dosing period.

## CCC(C)(C)C(=O)O[C@H]1C[C@@H](C)C=C2C=C[C@H](C)[C@H](CC[C@@H](O)C[C@@H](O)CC(=O)O)[C@H]21 [7-[1,2,6,7,8,8a(R)-hexahydro-2(S),6(R)-dimethyl-8(S)-(2,2-dimethylbutyryloxy)-naphthalenyl-1(S)]-3(R),5(R)-dihydroxyheptanoic acid]
Continuous gastric infusion over 24 hours (simulated controlled release), mean ± SD, n = 4 dogs
  Mean Maximum Reduction In Plasma Cholesterol: 60 ± 4.0^b percent
Oral bolus dose (rapid release), n = 1 dog
  Mean Maximum Reduction In Plasma Cholesterol: 31^a percent
